The values that follow come from PubChem BioAssay (NCI).

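Step 1: Grow cells in 96-well plates. Step 2: Expose to compound for 48 hours at 5 concentrations. Step 3: Interpolate endpoints linearly; if unreached, use highest concentration. Here, GI50 denotes the concentration required for 50% inhibition of growth. TGI: total growth inhibition.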

Test systems include OVCAR-5 ovarian; HCT-116 colon; EKVX NSCLC; TK-10 renal; SW-620 colon; M14 melanoma; CAKI-1 renal; HT29 colon; OVCAR-8 ovarian; 786-0 renal.
Holding throughout (assay): DTP human tumour cell line panel, 48 h

For the compound `CC1OC2CC(=O)OC2C2=C1C(=O)c1c(O)cccc1C2=O` (stereo not given), the 50% growth inhibitory concentration (GI50) (usually the concentration at which growth is held to half of that of the control) in the experiment on OVCAR-5 ovarian was 0.204 µM; in the experiment with HCT-116 colon it was 0.0286 µM; in the experiment with EKVX NSCLC, 0.407 µM; in the experiment on TK-10 renal, 0.0795 µM; in the experiment on SW-620 colon, 0.0411 µM; in the experiment on M14 melanoma, 0.0611 µM. In addition, the GI50 with CAKI-1 renal was 0.0423 µM; in the experiment with HT29 colon it was 0.0312 µM; in the experiment on OVCAR-8 ovarian, 0.0501 µM; in the experiment on 786-0 renal it was 0.149 µM. Besides, the TGI (commonly the concentration at which net growth stops) in the experiment on OVCAR-5 ovarian came to 0.44 µM; with HCT-116 colon, 0.107 µM; in the experiment with EKVX NSCLC it was 1.59 µM; in the experiment on TK-10 renal it was 0.283 µM; in the experiment on SW-620 colon it was 0.154 µM; in the experiment on M14 melanoma, 0.193 µM. In addition, the TGI is 0.148 µM in the experiment on CAKI-1 renal, 0.113 µM with HT29 colon, 0.36 µM with OVCAR-8 ovarian and 0.292 µM with 786-0 renal.

With `CC(=O)OC1Oc2ccccc2-c2oc(=O)c(-c3cc(=O)oc4cc(O)ccc34)cc21` (stereo not given), the GI50 in the experiment with OVCAR-5 ovarian is 26.6 µM; with HCT-116 colon, 25 µM; in the experiment with EKVX NSCLC it was 17.5 µM; in the experiment on TK-10 renal, 32.6 µM; in the experiment with SW-620 colon it was 25.8 µM; in the experiment on M14 melanoma, 26.7 µM. Also, the GI50 in the experiment on CAKI-1 renal is 21.7 µM; in the experiment on HT29 colon, 26.4 µM; with OVCAR-8 ovarian, 19.8 µM; in the experiment on 786-0 renal, 16.2 µM. Further, the TGI with OVCAR-5 ovarian is 57.2 µM; with HCT-116 colon it was over 100 µM; in the experiment on EKVX NSCLC, 49.3 µM; with TK-10 renal, over 100 µM; with SW-620 colon, 74.4 µM; in the experiment with M14 melanoma, 83.9 µM. Also, the TGI was 83.7 µM in the experiment with CAKI-1 renal, over 100 µM in the experiment on HT29 colon, over 100 µM in the experiment on OVCAR-8 ovarian and 38.4 µM with 786-0 renal.

With `COc1ccc(N(C)c2ncnc3occ(C)c23)cc1`, the GI50 with OVCAR-5 ovarian is under 0.0113 µM; in the experiment on HCT-116 colon, under 0.01 µM; in the experiment with EKVX NSCLC, under 0.01 µM; in the experiment on TK-10 renal, 55.6 µM; in the experiment on SW-620 colon, under 0.01 µM; in the experiment on M14 melanoma, under 0.01 µM. In addition, the GI50 in the experiment on CAKI-1 renal, with HT29 colon, with OVCAR-8 ovarian and in the experiment on 786-0 renal was under 0.01 µM each time. Also, the concentration for total growth inhibition (TGI) with OVCAR-5 ovarian was over 100 µM; in the experiment with HCT-116 colon it was 0.197 µM; in the experiment on EKVX NSCLC, over 100 µM; with TK-10 renal, over 100 µM; in the experiment on SW-620 colon it was over 100 µM; in the experiment with M14 melanoma, over 100 µM. For the same compound, the TGI in the experiment on CAKI-1 renal is over 100 µM; in the experiment with HT29 colon, 16.3 µM; in the experiment with OVCAR-8 ovarian, over 100 µM; in the experiment with 786-0 renal it was over 100 µM.

On to `C/C1=C\CC[C@@]2(C)O[C@@H]2[C@H]2OC(=O)[C@@H](CN(C)C)[C@@H]2CC1`, for which the GI50 is 18.6 µM with OVCAR-5 ovarian; 4.97 µM in the experiment with HCT-116 colon; 21.1 µM in the experiment with EKVX NSCLC; 3.09 µM in the experiment with TK-10 renal; 3.76 µM in the experiment with SW-620 colon; 16.3 µM with M14 melanoma. In addition, the GI50 in the experiment on CAKI-1 renal was 13.2 µM; in the experiment with HT29 colon, 19.9 µM; with OVCAR-8 ovarian, 23.2 µM; with 786-0 renal, 7.61 µM. For the same compound, the TGI with OVCAR-5 ovarian is 37.1 µM; in the experiment on HCT-116 colon, 20.4 µM; in the experiment with EKVX NSCLC, 41.8 µM; in the experiment on TK-10 renal, 7.7 µM; with SW-620 colon it was over 100 µM; in the experiment on M14 melanoma, 35.2 µM. The TGI is 31.3 µM with CAKI-1 renal, 61.4 µM with HT29 colon, 52.8 µM with OVCAR-8 ovarian and 24 µM in the experiment with 786-0 renal.

Consider `COc1cc(Nc2cn[nH]c2-c2ccc(Cl)cc2)cc(OC)c1OC`, for which the GI50 in the experiment with OVCAR-5 ovarian is 15.9 µM; with HCT-116 colon, 3.73 µM; with EKVX NSCLC, 5.21 µM; in the experiment with TK-10 renal, 9.13 µM; in the experiment on SW-620 colon, 3.87 µM; in the experiment with M14 melanoma, 2.5 µM. Further, the GI50 in the experiment on CAKI-1 renal is 2.34 µM; with HT29 colon, 3.24 µM; with OVCAR-8 ovarian it was 14.3 µM; in the experiment with 786-0 renal, 6.8 µM. Further, the TGI with OVCAR-5 ovarian was over 77.1 µM; with HCT-116 colon it was 13.7 µM; in the experiment with EKVX NSCLC, 52.7 µM; in the experiment on TK-10 renal, 62.9 µM; in the experiment with SW-620 colon, 23.7 µM; in the experiment on M14 melanoma, 9.41 µM. Moreover, the concentration for total growth inhibition (TGI) is 26.2 µM in the experiment with CAKI-1 renal, 14.3 µM with HT29 colon, over 100 µM in the experiment on OVCAR-8 ovarian and 36.2 µM in the experiment with 786-0 renal.

`C=C(F)C(=O)N1CCN(c2nc(OC[C@@H]3CCCN3C)nc3c2CCN(c2cccc4cccc(Cl)c24)C3)C[C@@H]1CC#N`: the GI50 in the experiment with OVCAR-5 ovarian was 0.485 µM; in the experiment on HCT-116 colon it was 0.562 µM; in the experiment with EKVX NSCLC it was 1.93 µM; with TK-10 renal it was 1.1 µM; in the experiment on SW-620 colon, 0.992 µM; in the experiment with M14 melanoma it was 1.06 µM. The GI50 in the experiment on CAKI-1 renal was 0.926 µM; in the experiment with HT29 colon, 0.699 µM; with OVCAR-8 ovarian, 0.473 µM; in the experiment on 786-0 renal it was 0.769 µM. Further, the TGI in the experiment on OVCAR-5 ovarian amounted to 2.56 µM; in the experiment on HCT-116 colon, 1.88 µM; with EKVX NSCLC it was 7.53 µM; in the experiment with TK-10 renal it was 2.67 µM; in the experiment on SW-620 colon, 2.52 µM; in the experiment with M14 melanoma it was 2.34 µM. For the same compound, the total growth inhibition concentration (TGI) in the experiment with CAKI-1 renal was 2.44 µM; with HT29 colon, 2.42 µM; in the experiment on OVCAR-8 ovarian, 1.79 µM; in the experiment with 786-0 renal, 2.09 µM.

In the case of `CC(=O)Nc1ccc(C(=O)NN2C(=O)C(Cl)C2c2ccccc2)cc1` (stereo not given), the concentration for total growth inhibition (TGI) with OVCAR-5 ovarian, in the experiment on HCT-116 colon, in the experiment on EKVX NSCLC, in the experiment on TK-10 renal, in the experiment with SW-620 colon and in the experiment on M14 melanoma was over 100 µM each time. Besides, the TGI in the experiment with CAKI-1 renal, in the experiment with HT29 colon, with OVCAR-8 ovarian and in the experiment with 786-0 renal was over 100 µM each time.

Turning to `CC(=O)O.CC(=O)O.CC(=O)O.CC(=O)O.CC(=O)O.CC(=O)O.O.[Ti].[Ti]`, the GI50 with OVCAR-5 ovarian, in the experiment on HCT-116 colon, in the experiment with EKVX NSCLC, in the experiment with TK-10 renal, in the experiment with SW-620 colon and in the experiment on M14 melanoma was over 100 µM throughout. Besides, the GI50 in the experiment with CAKI-1 renal, in the experiment with HT29 colon, in the experiment on OVCAR-8 ovarian and in the experiment with 786-0 renal was over 100 µM each time. The TGI in the experiment on OVCAR-5 ovarian, in the experiment with HCT-116 colon, in the experiment with EKVX NSCLC, with TK-10 renal, in the experiment with SW-620 colon and in the experiment with M14 melanoma was over 100 µM in each case. For the same compound, the TGI with CAKI-1 renal, in the experiment on HT29 colon, in the experiment on OVCAR-8 ovarian and in the experiment with 786-0 renal was over 100 µM throughout.

As to `Cc1ccc(S(=O)(=O)NCC2CCCCC2=O)cc1` (stereo not given), the TGI in the experiment on OVCAR-5 ovarian, in the experiment on HCT-116 colon, in the experiment on EKVX NSCLC, in the experiment with TK-10 renal, with SW-620 colon and in the experiment on M14 melanoma was over 100 µM in each case. Besides, the total growth inhibition concentration (TGI) with CAKI-1 renal is 67.5 µM; in the experiment on HT29 colon it was over 100 µM; with OVCAR-8 ovarian, over 100 µM; with 786-0 renal, over 100 µM.

As for `Cn1c(=O)c2c(nc(Nc3cc(=O)[nH]c(=O)[nH]3)n2Cc2ccccc2)n(C)c1=O`, the GI50 with OVCAR-5 ovarian was over 100 µM; with HCT-116 colon, over 100 µM; in the experiment on EKVX NSCLC, 56.6 µM; in the experiment on TK-10 renal, over 100 µM; with SW-620 colon it was over 100 µM; in the experiment with M14 melanoma, over 100 µM. The GI50 in the experiment on CAKI-1 renal is 50.1 µM; in the experiment with HT29 colon, over 100 µM; in the experiment on OVCAR-8 ovarian, over 100 µM; in the experiment on 786-0 renal, over 100 µM. The TGI in the experiment on OVCAR-5 ovarian, in the experiment with HCT-116 colon, in the experiment with EKVX NSCLC, in the experiment on TK-10 renal, in the experiment on SW-620 colon and in the experiment with M14 melanoma was over 100 µM in each case. The TGI in the experiment with CAKI-1 renal, in the experiment with HT29 colon, with OVCAR-8 ovarian and with 786-0 renal was over 100 µM each time.

`COC(=O)/C=C/c1cc(O)c2oc(-c3ccc(O)c(O)c3)c(C(=O)OC)c2c1`: the GI50 in the experiment on OVCAR-5 ovarian was 3.56 µM; in the experiment with HCT-116 colon, 0.329 µM; in the experiment on EKVX NSCLC it was 3.3 µM; in the experiment on TK-10 renal it was 3.89 µM; in the experiment on SW-620 colon, 0.124 µM; in the experiment on M14 melanoma it was 0.0698 µM. Further, the GI50 with CAKI-1 renal is 1.42 µM; in the experiment on HT29 colon, 3.24 µM; in the experiment on OVCAR-8 ovarian, 0.521 µM; in the experiment with 786-0 renal it was 3.67 µM. The TGI in the experiment on OVCAR-5 ovarian was 16.5 µM; with HCT-116 colon it was 9.14 µM; with EKVX NSCLC it was 16.6 µM; in the experiment on TK-10 renal, 16.9 µM; in the experiment on SW-620 colon it was 14 µM; with M14 melanoma it was 9.39 µM. Moreover, the TGI with CAKI-1 renal was 15 µM; in the experiment on HT29 colon, 11.5 µM; in the experiment on OVCAR-8 ovarian, 13 µM; with 786-0 renal, 16.3 µM.

For `CCCCc1c(OC)cc(O)c2c1C(=O)c1[nH]c(C(=O)O)c(O)c(=O)c1C2=O`, the total growth inhibition concentration (TGI) with OVCAR-5 ovarian was 65.3 µM; in the experiment with HCT-116 colon it was over 100 µM; with EKVX NSCLC it was over 100 µM; in the experiment with TK-10 renal, over 100 µM; with SW-620 colon it was over 100 µM; in the experiment on M14 melanoma it was 34.3 µM. The TGI was over 100 µM in the experiment with CAKI-1 renal, over 100 µM in the experiment on HT29 colon, 28.8 µM in the experiment on OVCAR-8 ovarian and 63.8 µM with 786-0 renal.
